{"source": "patent US10538564B2", "about": "“Peptides having osteoblast growth-promoting activity and use thereof” (PHARMA FOODS INTERNATIONAL CO., LTD., priority 2014, dated 2020)", "key": {"[1]": {"tested_on": "ovariectomized (OVX) female rats", "experiment": "Postmenopausal osteoporosis model of ovariectomized rats", "format": "in vivo, rat", "settings": "for bone density compared with sham operation group / volume of the cancellous bone compared with sham operation group: six months", "experimental": "Female rats (eight months old, ten rats in each group) underwent ovariectomy (OVX), and synthetic peptide No. 1 was administered to the rats by oral gavage using a gastric tube once a day from the first postoperative day for six months. The dose of the synthetic peptide was 1, 10 or 100 mg/kg·day."}, "[2]": {"tested_on": "aged female rats (13 to 14 months old)", "experiment": "Bone formation-promoting effect in aged rats", "format": "in vivo, rat", "settings": "oral 1, 10 or 100 mg/kg·day, 20 weeks", "experimental": "Synthetic peptide No. 1 was administered to aged female rats (13 to 14 months old, ten rats in each group) by oral gavage using a gastric tube once a day for 20 weeks. The dose of the synthetic peptide was 1, 10 or 100 mg/kg·day."}, "[3]": {"tested_on": "Sprague-Dawley male rats fed with a low-calcium diet", "experiment": "Bone density recovery test after low-calcium diet (DXA, pQCT)", "format": "in vivo, rat", "settings": "oral 1, 10 or 100 mg/kg·day for seven days after one week low-calcium diet; vs control", "experimental": "Sprague-Dawley male rats at three weeks old were initially fed with a low-calcium diet (containing 0.05% calcium carbonate) for one week, and then fed with a normal diet (containing 1.2% calcium carbonate). The synthetic peptide (No. 1) or physiological saline (control) was administered to the rats by oral gavage using a gastric tube once a day for seven days. The dose of the synthetic peptide was 1, 10 or 100 mg/kg·day. After the oral administration on day 7, the rats were euthanized by bloodletting under anesthesia, and the femurs and tibiae were harvested. The bone volume and bone morphology of the tibiae and femurs were measured by dual energy x-ray absorptiometry (DXA) and peripheral quantitative computed tomography (pQCT)."}, "[4]": {"tested_on": "Crlj:W1 male rats at four weeks old", "experiment": "Mineral apposition rate in secondary cancellous bone, 7-day oral administration", "format": "in vivo, rat", "settings": "seven days", "experimental": "One of the synthetic peptides (No. 1) or water for injection (control) was administered to Crlj:W1 male rats at four weeks old by oral gavage using a gastric tube once a day for seven days (n=10 in each group). The dose of the synthetic peptide was 1, 10 or 100 mg/kg-day. As a positive control, human growth hormone (hGH) (Norditropin, Standard Commodity Classification No. of Japan: 872412) was subcutaneously administered at 500 μg/kg·day once a day for seven days. As fluorescent labels for the site of bone formation, tetracycline (20 mg/kg) was subcutaneously administered on day 4 after the administration of the peptide or control, and then calcein (10 mg/kg) was subcutaneously administered on day 6 after the administration of the peptide or control. After the administration of the test sample on day 7, the rats were kept under fasting conditions. Twenty-four hours later, the rats were euthanized by bloodletting under anesthesia, and the tibiae were harvested. Non-decalcified specimens of the proximal tibiae were prepared and photographed under a fluorescent microscope (BX-53, OLYMPUS). The bone morphology was measured using a morphometry system (Histometry RT digitizer, System Supply Co., Ltd.) and an analysis software (CSS-840 cancellous bone morphometry version, System Supply Co., Ltd.). The mineral apposition rate (MAR), per day, in the secondary cancellous bone was determined by measuring the distance between the tetracycline label and the calcein label in the secondary cancellous bone, and dividing the distance by the administration interval between the fluorescent labels (two days). […] The increase in the mineral apposition rate in the secondary cancellous bone in the No. 1 administration group would have resulted from the increase in the number of osteoblasts."}, "[5]": {"tested_on": "mouse osteoblast-like cell line MC3T3-E1 Subclone-4", "experiment": "Osteoblast growth-promoting activity (cell counting method)", "format": "cell-based", "settings": "synthetic peptides at 2.5, 5 or 10 μg/mL; 72 hours; relative to PBS (−) group taken as 100; FIGS. 9 to 12", "experimental": "A mouse osteoblast-like cell line MC3T3-E1 Subclone-4 (ATCC No. CRL-2593) was cultured in α-MEM medium supplemented with 10% FBS at 5% CO2 and 95% air at 37° C. until confluent. The cells were collected by trypsinization. The collected cells were suspended at 1×10^4 cells/mL in fresh α-MEM medium. One mL of the cell suspension was seeded in each well of a 24-well plate, and precultured at 5% CO2 and 95% air at 37° C. On the next day, the medium was replaced with medium prepared by well mixing 50 μL of a sample or PBS (−) with 950 μL of fresh α-MEM medium supplemented with CaCl2 to a Ca concentration of 500 μg/mL. The cells were further cultured for 72 hours. The growth activity of osteoblasts was measured by the cell counting method. The activity of the sample for promoting the growth of osteoblasts was expressed in terms of the relative value, with the growth rate in the PBS (−) group taken as 100. Osteoblast growth-promoting activity was determined for the synthetic peptides in the same manner as in Example 1. The synthetic peptides were added at 2.5, 5 or 10 μg/mL per well. As a control, PBS (−) was added. The osteoblast growth-promoting activity was expressed in terms of the relative value, with the growth rate in the PBS (−) group taken as 100."}, "[6]": {"tested_on": "Sprague-Dawley male rats at three weeks old", "experiment": "Bone growth promoting effect in adolescent rats (tibial growth plate, calcein label)", "format": "in vivo, rat", "settings": "FIG. 13", "experimental": "One of the synthetic peptides (No. 1) or physiological saline (control) was administered to Sprague-Dawley male rats at three weeks old by oral gavage using a gastric tube once a day for four days. The dose of the synthetic peptide was 1, 10 or 100 mg/kg·day. As a positive control, human growth hormone (hGH) (Norditropin, Standard Commodity Classification No. of Japan: 872412) was subcutaneously administered at 20 μg/kg·day once a day for four days. After the administration on day 4, calcein was subcutaneously administered, and the rats were kept for one day. The rats were euthanized by bloodletting under anesthesia, and the tibiae were harvested. The tissue specimens of the tibial growth plates were prepared, and calcein deposition areas (fluorescent regions) on the tibial growth plates were measured under a fluorescent microscope to determine the longitudinal bone growth."}, "[7]": {"settings": "oral 1, 10 or 100 mg/kg·day for six months"}, "[8]": {"settings": "oral 1, 10 or 100 mg/kg·day for six months, significant vs OVX-control group"}}, "note": "No end group written: not given here."}
{"sequence": "VNPESEEE [No. 1]", "values": [{"measurement": "bone density compared with sham operation group", "setting": "[1]; high-dose 100 mg/kg·day oral", "value": "equal or higher bone density as compared with the sham operation group"}, {"measurement": "volume of the cancellous bone compared with sham operation group", "setting": "[1]; high-dose 100 mg/kg·day oral", "value": "equal or higher volume of the cancellous bone as compared with the sham operation group"}, {"measurement": "bone density compared with sham operation group", "setting": "[1]; medium-dose 10 mg/kg·day oral", "value": "equal or higher bone density as compared with the sham operation group"}, {"measurement": "volume of the cancellous bone compared with sham operation group", "setting": "[1]; medium-dose 10 mg/kg·day oral", "value": "equal or higher volume of the cancellous bone as compared with the sham operation group"}, {"measurement": "OVX-induced increase in the trabecular separation", "setting": "[1]; [7]", "value": "tended to be inhibited"}, {"measurement": "OVX-induced reduction in the trabecular numbers", "setting": "[1]; [7]", "value": "tended to be inhibited"}, {"measurement": "OVX-induced reduction in the trabecular width", "setting": "[1]; [7]", "value": "tended to be inhibited"}, {"measurement": "bone density of the distal femoral metaphysis", "setting": "[1]; [8]", "value": "increase in the bone density of the distal femoral metaphysis in a manner consistent with the increase in the dose of the synthetic peptide"}, {"measurement": "cancellous bone volume in the proximal tibial metaphysis", "setting": "[1]; [8]", "value": "increased in the OVX-synthetic peptide administration group in a manner consistent with the increase in the dose"}, {"measurement": "bone density in the femurs", "setting": "[2]", "value": "increased in a dose-dependent manner"}, {"measurement": "cancellous bone volume in the proximal tibial metaphysis", "setting": "[2]", "value": "increased in a dose-dependent manner"}, {"measurement": "bone density of the tibiae", "setting": "[3]", "value": "tended to be higher in the synthetic peptide administration group than in the control group"}, {"measurement": "length of the tibiae", "setting": "[3]", "value": "tended to be higher in the synthetic peptide administration group than in the control group"}, {"measurement": "weight of the tibiae", "setting": "[3]", "value": "tended to be higher in the synthetic peptide administration group than in the control group"}, {"measurement": "mineral apposition rate (MAR) in the secondary cancellous bone, vs control group", "setting": "[4]; No. 1 oral 1, 10 or 100 mg/kg-day, hGH 500 μg/kg·day subcutaneous, FIG. 26", "value": "significant increase in the mineral apposition rate"}, {"measurement": "osteoblast surface/bone surface (Ob.S/BS)", "setting": "[4]; oral 1, 10 or 100 mg/kg-day, FIG. 27", "value": "high percentage"}, {"measurement": "number of osteoblasts/tissue volume (N.Ob/TV)", "setting": "[4]; oral 1, 10 or 100 mg/kg-day, FIG. 28", "value": "high number of osteoblasts"}, {"measurement": "bone formation rate/bone surface (BFR/BS)", "setting": "[4]; oral 1, 10 or 100 mg/kg-day, FIG. 29", "value": "high rates"}, {"measurement": "bone formation rate/bone surface (BFR/BS), vs control group", "setting": "[4]; oral dose of 10 mg/kg-day or more", "value": "significant increase in the bone formation rate"}, {"measurement": "mineral apposition rate (MAR) in the secondary cancellous bone, vs hGH administration group", "setting": "[4]; oral dose of 10 mg/kg·day or more, FIG. 26", "value": "significant increase in the mineral apposition rate at a dose of 10 mg/kg·day or more as compared with the hGH administration group"}, {"measurement": "osteoblast growth-promoting activity", "setting": "[5]", "value": "promoted the growth of osteoblasts in a concentration-dependent manner"}, {"measurement": "effect of enhancing the increase in the height of the tibial growth plates, compared with hGH", "setting": "[6]; highest dose (100 mg/kg·day oral) vs hGH 20 μg/kg·day subcutaneous, four days", "value": "comparable to the effect of the subcutaneous administration of the human growth hormone"}, {"measurement": "increase in the height of the tibial growth plates", "setting": "[6]; oral gavage 1, 10 or 100 mg/kg·day once a day for four days", "value": "enhanced in a manner consistent with the increase in the dose of the synthetic peptide"}]}
